Measurements as given in patent publication US12516039B2, “N-linked isoquinoline amides as LRRK2 inhibitors, pharmaceutical compositions, and uses thereof” (Merck Sharp & Dohme LLC, priority 2020, dated 2026).

molecular target: T1, GST-tagged truncated human mutant G2019S LRRK2 (Homo sapiens, UniProt Q5S007, G2019S); experiment: LRRK2 G2019S Km ATP LanthaScreen assay; type: biochemical; conditions: 134 μM ATP (Km ATP), LRRKtide substrate, mean of several tests
T1 construct: GST-tagged truncated human mutant G2019S LRRK2; purchased Life Technologies Corporation (Carlsbad, CA)
T1 sequence (Q5S007 970-2527 G2019S limits assumed): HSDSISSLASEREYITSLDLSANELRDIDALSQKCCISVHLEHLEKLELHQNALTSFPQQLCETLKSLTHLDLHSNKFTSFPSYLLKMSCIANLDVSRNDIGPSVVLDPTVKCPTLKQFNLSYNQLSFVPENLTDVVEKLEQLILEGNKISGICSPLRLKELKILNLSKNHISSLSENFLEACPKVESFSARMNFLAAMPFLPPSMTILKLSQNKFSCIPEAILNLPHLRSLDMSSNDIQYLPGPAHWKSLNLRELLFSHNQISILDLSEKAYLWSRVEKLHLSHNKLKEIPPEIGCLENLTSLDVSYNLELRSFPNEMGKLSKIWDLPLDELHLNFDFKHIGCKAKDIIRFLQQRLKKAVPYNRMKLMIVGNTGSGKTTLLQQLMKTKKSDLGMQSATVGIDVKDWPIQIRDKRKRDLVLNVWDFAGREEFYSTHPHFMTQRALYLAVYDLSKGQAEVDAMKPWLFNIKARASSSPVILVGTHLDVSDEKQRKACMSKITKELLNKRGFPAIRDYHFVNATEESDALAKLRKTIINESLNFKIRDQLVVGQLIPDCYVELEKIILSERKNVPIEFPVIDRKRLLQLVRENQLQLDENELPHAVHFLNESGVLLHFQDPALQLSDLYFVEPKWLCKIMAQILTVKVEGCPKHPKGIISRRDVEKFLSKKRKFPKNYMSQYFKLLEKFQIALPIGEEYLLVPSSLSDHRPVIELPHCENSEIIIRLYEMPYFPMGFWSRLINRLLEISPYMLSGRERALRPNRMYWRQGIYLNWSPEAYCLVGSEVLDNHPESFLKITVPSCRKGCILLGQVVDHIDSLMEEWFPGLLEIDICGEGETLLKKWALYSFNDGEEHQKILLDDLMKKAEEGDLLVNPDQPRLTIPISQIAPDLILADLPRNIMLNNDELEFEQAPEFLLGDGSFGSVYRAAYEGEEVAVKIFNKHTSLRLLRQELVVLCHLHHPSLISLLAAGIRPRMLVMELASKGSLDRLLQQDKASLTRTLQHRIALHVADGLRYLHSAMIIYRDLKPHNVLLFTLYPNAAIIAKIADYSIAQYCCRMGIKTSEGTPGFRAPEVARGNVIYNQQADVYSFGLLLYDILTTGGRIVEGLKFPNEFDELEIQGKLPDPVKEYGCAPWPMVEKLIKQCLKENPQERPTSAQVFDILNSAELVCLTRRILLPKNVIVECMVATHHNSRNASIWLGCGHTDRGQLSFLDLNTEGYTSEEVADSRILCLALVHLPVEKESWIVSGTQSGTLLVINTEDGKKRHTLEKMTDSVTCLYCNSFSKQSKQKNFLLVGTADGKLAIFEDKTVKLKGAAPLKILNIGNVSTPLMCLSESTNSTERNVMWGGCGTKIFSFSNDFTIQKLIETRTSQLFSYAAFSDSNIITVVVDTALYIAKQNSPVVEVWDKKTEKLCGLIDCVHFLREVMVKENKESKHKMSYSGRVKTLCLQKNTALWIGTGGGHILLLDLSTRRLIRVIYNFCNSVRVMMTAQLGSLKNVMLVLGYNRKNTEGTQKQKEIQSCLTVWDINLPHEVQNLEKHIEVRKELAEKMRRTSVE
How it was run: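 IC50 values are means of repeat runs, fitted with a 4-parameter logistic to the 520/495 nm TR-FRET ratio from a Tb-labeled anti-phospho-LRRKtide antibody added with EDTA. Reactions ran 90 min at room temperature at Km ATP (134 μM) with fluorescein-LRRKtide, after 15-min compound preincubation with truncated GST-tagged G2019S LRRK2.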

| Compound | LRRK2 pIC50 |
| --- | --- |
| (3R or 3S)-N-[6-[4-((3R,4R or 3S,4S)-4-fluoro-3-methyl-tetrahydrofuran-3-yl)piperazin-1-yl]-7-methyl-3-isoquinolyl]-5,5-dimethyl-tetrahydrofuran-3-carboxamide [Ex-10.95] | 9.64 |

same assay, conditions: 134 μM ATP (Km ATP), LRRKtide substrate, mean of several tests, read-out: LRRK2 pIC50 (converted)

| Compound | IC50 |
| --- | --- |
| CC1(N2CCN(c3cc4cc(NC(=O)C5CCC(F)(F)CO5)ncc4cc3Cl)CC2)COCC1O (single isomer, unassigned) [Ex-10.1, (2R or 2S)-N-(7-chloro-6-((3R, 4R or 3S, 4S)-4-(4-hydroxy-3-methyltetrahydrofuran-3-yl)piperazin-1-yl)isoquinolin-3-yl)-5,5-difluorotetrahydro-2H-pyran-2-carboxamide] | 0.933 nM |
| CCC1C(C(=O)Nc2cc3cc(N4CCN(C5(C)CCOC5)CC4)c(Cl)cc3cn2)C1c1cnn(C)c1 (single isomer, unassigned) [Ex-9.10] | 0.0813 nM |
| CC1(C2CCOC2)CC1C(=O)Nc1cc2cc(N3CCN(C4(C)COCC4O)CC3)c(Cl)cc2cn1 (single isomer, unassigned) [Ex-10.84, (1R,2R or 1S,2S, or 1R,2S, or 1S,2R)-N-[7-chloro-6-[4-((3R,4R or 3S,4S)-4-hydroxy-3-methyl-tetrahydrofuran-3-yl)piperazin-1-yl]-3-isoquinolyl]-2-methyl-2-tetrahydrofuran-3-yl-cyclopropanecarboxamide] | 0.214 nM |
| CC1(N2CCN(c3cc4cc(NC(=O)C56CC(C5)C6)ncc4cc3Cl)CC2)COCC1O (single isomer, unassigned) [Ex-2.19, N-(7-chloro-6-(4-((3R,4R or 3S,4S)-4-hydroxy-3-methyltetrahydrofuran-3-yl)piperazin-1-yl)isoquinolin-3-yl)bicyclo[1.1.1]pentane-1-carboxamide] | 2.88 nM |
| CC1(N2CCN(c3cc4cc(NC(=O)C5CC5C5CCOCC5)ncc4cc3Cl)CC2)COCC1F (single isomer, unassigned) [Ex-10.69, (1R,2R or 1S,2S)-N-[7-chloro-6-[4-((3R,4R or 3S,3S)-4-fluoro-3-methyl-tetrahydrofuran-3-yl)piperazin-1-yl]-3-isoquinolyl]-2-tetrahydropyran-4-yl-cyclopropanecarboxamide] | 0.0813 nM |
| Cc1cc2cnc(NC(=O)C3CC34CCOC4)cc2cc1N1CCN(C2(C)COCC2O)CC1 (single isomer, unassigned) [Ex-6.9, (1R, 3S or 1S,3R, or 1R,3S, or 1S,3S)-N-(6-(4-((3R, 4R or 3S,4S)-4-hydroxy-3-methyltetrahydrofuran-3-yl)piperazin-1-yl)-7-methylisoquinolin-3-yl)-5-oxaspiro[2.4]heptane-1-carboxamide] | 324 nM |
| CC1(N2CCN(c3cc4cc(NC(=O)C5CC56CCC(F)(F)CC6)ncc4cc3Cl)CC2)COCC1O (single isomer, unassigned) [Ex-1.19, (1R or 1S)-N-(7-chloro-6-(4-((3R,4R or 3S,4S)-4-hydroxy-3-methyltetrahydrofuran-3-yl)piperazin-1-yl)isoquinolin-3-yl)-6,6-difluorospiro[2.5]octane-1-carboxamide] | 1.1 nM |
| CC1C(C(=O)Nc2cc3cc(N4CCN(C5(C)COCC5O)CC4)c(Cl)cc3cn2)C1c1ccccn1 (single isomer, unassigned) [Ex-11.4, (1R,2R,3R, or 1R,2S,3R, or 1S,2R,3S, or 1S,2S,3S)-N-(7-chloro-6-(4-((3R,4R or 3S,4S)-4-hydroxy-3-methyltetrahydrofuran-3-yl)piperazin-1-yl)isoquinolin-3-yl)-2-methyl-3-(pyridin-2-yl)cyclopropane-1-carboxamide] | 0.977 nM |
| CC1(N2CCN(c3cc4cc(NC(=O)C5CC56CCOCC6)ncc4cc3Cl)CC2)COCC1O (single isomer, unassigned) [Ex-2.2, (R or S)-N-(7-chloro-6-(4-((3R,4R or 3S,4S)-4-hydroxy-3-methyltetrahydrofuran-3-yl)piperazin-1-yl)isoquinolin-3-yl)-6-oxaspiro[2.5]octane-1-carboxamide] | 3.63 nM |
| CC1(C)OCCC1C(=O)Nc1cc2cc(N3CCN(C4(C)COCC4O)CC3)c(Cl)cc2cn1 (single isomer, unassigned) [Ex-1.23, (R or S)-N-(7-chloro-6-(1-((3R,4R or 3S,4S)-4-hydroxy-3-methyltetrahydrofuran-3-yl)piperazin-4-yl)isoquinolin-3-yl)-2,2-dimethyltetrahydrofuran-3-carboxamide] | 7.41 nM |
| CCOC1CC2(C1)CC2C(=O)Nc1cc2cc(N3CCN(C4(C)COCC4F)CC3)c(Cl)cc2cn1 (single isomer, unassigned) [Ex-10.23, (1R,2R or 1S,2S)-N-[7-chloro-6-[4-((3R,4R or 3S,4S)-4-fluoro-3-methyl-tetrahydrofuran-3-yl)piperazin-1-yl]-3-isoquinolyl]-5-ethoxy-spiro[2.3]hexane-2-carboxamide] | 0.724 nM |
| Cc1cc2cnc(NC(=O)C3CCOC(C)(C)C3)cc2cc1N1CCN(C2(C)CCOC2)CC1 (single isomer, unassigned) [Ex-10.41, (4R or 4S)-2,2-dimethyl-N-[7-methyl-6-[4-((R or S)-3-methyltetrahydrofuran-3-yl)piperazin-1-yl]-3-isoquinolyl]tetrahydropyran-4-carboxamide] | 0.309 nM |
| COCC1CCC1C(=O)Nc1cc2cc(N3CCN(C4(C)COCC4O)CC3)c(Cl)cc2cn1 (single isomer, unassigned) [Ex-1.25, (1R,2S or 1R,2R, or 1S,2S, or 1S,2R)-N-(7-chloro-6-(4-((3R,4R)-4-hydroxy-3-methyltetrahydrofuran-3-yl)piperazin-1-yl)isoquinolin-3-yl)-2-(methoxymethyl)cyclobutane-1-carboxamide] | 0.158 nM |
| CC1(N2CCN(c3cc4cc(NC(=O)C5C6COCC65)ncc4cc3Cl)CC2)COCC1O (single isomer, unassigned) [Ex-1.10, (1R or S)-N-(7-chloro-6-(4-((3R,4R or 3S,4S)-4-hydroxy-3-methyltetrahydrofuran-3-yl)piperazin-1-yl)isoquinolin-3-yl)-3-oxabicyclo[3.1.0]hexane-6-carboxamide] | 107 nM |
| COC1COCC1(C)N1CCN(c2cc3cc(NC(=O)C4CC45CCOCC5)ncc3cc2Cl)CC1 (single isomer, unassigned) [Ex-5.3] | 0.372 nM |
| CCOC1CC2(C1)CC2C(=O)Nc1cc2cc(N3CCN(C4(C)COCC4F)CC3)c(Cl)cc2cn1 (single isomer, unassigned) [Ex-10.24, (1R,2R or 1S,2S)-N-[7-chloro-6-[4-((3R,4R or 3S,4S)-4-fluoro-3-methyl-tetrahydrofuran-3-yl)piperazin-1-yl]-3-isoquinolyl]-5-ethoxy-spiro[2.3]hexane-2-carboxamide] | 0.0813 nM |
| Cc1cc2cnc(NC(=O)C3CCOC(C)(C)C3)cc2cc1N1CCN(C2(C)CCOC2)CC1 (single isomer, unassigned) [Ex-10.42, (4R or 4S)-2,2-dimethyl-N-[7-methyl-6-[4-((R or S)-3-methyltetrahydrofuran-3-yl)piperazin-1-yl]-3-isoquinolyl]tetrahydropyran-4-carboxamide] | 0.525 nM |
| CC1(N2CCN(c3cc4cc(NC(=O)C5CCC5C#N)ncc4cc3Cl)CC2)COCC1F (single isomer, unassigned) [Ex-10.67, (1R,2R or 1S,2S)-N-[7-chloro-6-[4-((3R,4R or 3S,4S)-4-fluoro-3-methyl-tetrahydrofuran-3-yl)piperazin-1-yl]-3-isoquinolyl]-2-cyano-cyclobutanecarboxamide] | 0.102 nM |
| CC1(N2CCN(c3cc4cc(NC(=O)C5CC5C5CCOCC5)ncc4cc3Cl)CC2)COCC1O (single isomer, unassigned) [Ex-10.31, (1R,2R or 1S,2S)-N-[7-chloro-6-[4-((3R,4R or 3S,4S)-4-hydroxy-3-methyl-tetrahydrofuran-3-yl)piperazin-1-yl]-3-isoquinolyl]-2-tetrahydropyran-4-yl-cyclopropanecarboxamide] | 0.0813 nM |
| CC(C)Cn1nccc1C1CC1C(=O)Nc1cc2cc(N3CCN(C4(C)COCC4O)CC3)c(Cl)cc2cn1 (single isomer, unassigned) [Ex-10.20, (1R,2R or 1S,2S)-N-[7-chloro-6-[4-((3R,4R or 3S,4S)-4-hydroxy-3-methyl-tetrahydrofuran-3-yl)piperazin-1-yl]-3-isoquinolyl]-2-(2-isobutylpyrazol-3-yl)cyclopropanecarboxamide] | 2.24 nM |
| CC1(c2ccccn2)CC1C(=O)Nc1cc2cc(N3CCN(C4(C)COCC4O)CC3)c(Cl)cc2cn1 (single isomer, unassigned) [Ex-11.1, (1R,2R)(3R,4R)— or (1R,2S)(3R,4R)— or (1S,2R)(3R,4R)— or (1S,2S)(3R,4R)— or (1R,2R)(3S,4S)— or (1R,2S)(3S,4S)— or (1S,2R)(3S,4S)— or (1S,2S)(3S,4S)-N-(7-chloro-6-(4-(4-hydroxy-3-methyltetrahydrofuran-3-yl)piperazin-1-yl)isoquinolin-3-yl)-2-methyl-2-(pyridin-2-yl)cyclopropane-1-carboxamide] | 0.0813 nM |
| CC1(C)C(C(=O)Nc2cc3cc(N4CCN(C5(C)COCC5O)CC4)c(Cl)cc3cn2)C1C1CCCCO1 (single isomer, unassigned) [Ex-10.92, (1R,2R,3R, 1R,2S,3R, or 1S,2R,3S, or 1S,2S,3S)-N-[7-chloro-6-[4-((3R,4R or 3S,4S)-4-hydroxy-3-methyl-tetrahydrofuran-3-yl)piperazin-1-yl]-3-isoquinolyl]-2,2-dimethyl-3-tetrahydropyran-2-yl-cyclopropanecarboxamide] | 1.95 nM |
| Cc1cc2cnc(NC(=O)C3CC3c3ccccn3)cc2cc1N1CCN(C2(C)CCOC2)CC1 (single isomer, unassigned) [Ex-9.16] | 1.12 nM |
